In publication PMC6733874, “Zebrafish behavioural profiling identifies GABA and serotonin receptor ligands related to sedation and paradoxical excitation” (Nature Communications, 2019):
Like-named read-outs stand apart in the source and are kept apart here.

How the values were obtained:
[1] = system: zebrafish; assay type: in vivo
[2] = system: human GABAARs (α1β2 and α1β2γ2); assay type: cell-based; conditions: for Ave Norm FLIPR Score / FLIPR Results: compound at 20 uM then 5 uM GABA; for Ave Norm FLIPR Score: DMSO = 1; for FLIPR Results: Positive/Negative
Text: To determine if these compounds targeted human GABAARs, we tested them in a fluorescent imaging plate reader (FLIPR) assay on HEK293 cells transfected with α1β2 and α1β2γ2 human GABAAR subtypes. […]. […] While some of the compounds appeared to function in this assay as negative allosteric modulators (NAMs), reductions in fluorescence were likely due to toxicity-induced cell loss (Fig. 2f, Supplementary Table 5).
We used the FLIPR system (Molecular Devices) to quantify GABA-evoked activity of human GABAARs. We chose a membrane potential dye (Molecular Devices) to measure changes in membrane potentials and stably transfected HEK293 cells that expressed α1, β2 and γ2. Since we observed an increase in GABA-evoked responses when transfected with γ2 transiently, we describe the cells as having a low level of γ-subunit expression, indicating heterogeneity of GABAAR compositions in the cell (α1β2 or α1β2γ2). To assay for direct agonists, fluorescence was subtracted pre- and post compound addition. To assay for PAMs, cells were treated with compound at 20 uM and then with 5 uM GABA.

[3] = larvae, low-volume acoustic stimulus

CCN(CC)CCOC(=O)c1cc(Cl)c(N)cc1OC [SDZ-205557]
Phenoscore ([1]; zebrafish, in vivo): 0.07

O=C(Cc1ccc(Cl)cc1)Nc1cccc(C(=O)c2ccccc2)c1 [compound 7100598]
Ave Norm FLIPR Score [2]: 7.736
FLIPR Results [2]: Positive

O=C(Nc1c(C(=O)Nc2ccc(Cl)cc2)cnn1-c1ccccc1)c1ccco1 [compound 5583877]
Ave Norm FLIPR Score [2]: 36.71
FLIPR Results [2]: Positive

CC(N)Cc1c[nH]c2ccc(O)cc12 (stereo not drawn) [alpha-METHYLSEROTONIN]
Phenoscore ([1]; zebrafish, in vivo): 0.18

CCOC(=O)Nc1ccc(NCc2ccc(F)cc2)nc1N [flupirtine]
eASR magnitudes in animals treated with M-current ligands ([1]; zebrafish, in vivo): significantly decreased

Nc1ccc(Oc2ccc(Cl)c3cccnc23)c(Cl)c1 [compound 5846886]
Ave Norm FLIPR Score [2]: -5.255

CC(=O)c1c(C)nc2n(Cc3ccccc3)c3ccccc3n12 [compound 5573728]
Ave Norm FLIPR Score [2]: 27.62
FLIPR Results [2]: Positive

FC(F)OC(Cl)C(F)(F)F (stereo not shown) [isoflurane]
enhanced acoustic startle response (eASR) phenotype, in words [1, 3]: not all anesthetics caused eASR behaviors

CCOC(=O)c1ncn2c1[C@@H]1CCCN1C(=O)c1cc(OC)ccc1-2 [L-655,708]
Phenoscore ([1]; zebrafish, in vivo): 0.51

Oc1noc2c1CCNC2 [THIP, gaboxadol]
enhanced acoustic startle response (eASR) phenotype, in words [1, 3]: did not cause eASRs

CC(=O)/N=C(/Nc1cccc(C(F)(F)F)c1)Nc1nc(C)cc(C)n1 [compound 5869570]
Ave Norm FLIPR Score [2]: 15.04
FLIPR Results [2]: Positive

COc1ccccc1N1CCN(C(=O)COc2ccc(Cl)cc2Br)CC1 [compound 5801496]
enhanced acoustic startle response (eASR) phenotype, in words [1, 3]: did not cause eASRs in vivo

CCCCNc1c(C(=O)OCC)c(C)nc2c1cnn2CC [tracazolate]
Ave Norm FLIPR Score [2]: 50.14
FLIPR Results [2]: Positive
GABAAR PAM activity in FLIPR, in words ([2]; in the presence of GABA): increased fluorescence in the presence of GABA

COc1ccccc1N1CCN(C(=O)c2ccc(C(=O)c3c(C)cc(C)cc3C)cc2)CC1 [compound 5352629]
Phenoscore ([1]; zebrafish, in vivo): 0.48

NCCCC(=O)O [GABA]
Phenoscore ([1]; zebrafish, in vivo): 0.21

CCc1c(C(=O)OC)ncc2[nH]c3cc(OC)c(OC)cc3c12 [DMCM]
Phenoscore ([1]; zebrafish, in vivo): 0.54

CN1CCc2cc3c(cc2[C@H]1[C@@H]1OC(=O)c2c1ccc1c2OCO1)OCO3 [bicuculline (-)]
Phenoscore ([1]; zebrafish, in vivo): 0.05

C[C@]12C=CC(=O)N[C@@H]1CC[C@@H]1[C@@H]2CC[C@]2(C)[C@@H](C(=O)Nc3cc(C(F)(F)F)ccc3C(F)(F)F)CC[C@@H]12 [dutasteride]
effect on progesterone's etomidate-like phenotype ([1]; dutasteride 3.0 μM + progesterone 2.5 μM): suppressed

O=C(N/N=C/c1ccccc1O)c1ccccc1O [SCS]
Phenoscore ([1]; zebrafish, in vivo): 0.04

CCOC(=O)c1c(C)n(Cc2ccco2)c2ccc(OC)cc12 [compound 5943451]
Phenoscore ([1]; zebrafish, in vivo): 0.37

CCOC(=O)c1c(NC(=O)C2CCCC2)sc2c1CCCC2 [compound 7282929]
Ave Norm FLIPR Score [2]: 17.15
FLIPR Results [2]: Positive

O=C(Nc1c(-c2cccs2)nc2ccccn12)c1ccc(Cl)cc1 [DS2]
enhanced acoustic startle response (eASR) phenotype, in words [1, 3]: did not cause eASRs

COc1cc(CC(C)N)c(OC)cc1I.Cl (stereo not shown) [DOI HYDROCHLORIDE]
Phenoscore ([1]; zebrafish, in vivo): 0.1

CCOC(=O)c1cccc(N)c1 [tricaine]
enhanced acoustic startle response (eASR) phenotype, in words [1, 3]: not all anesthetics caused eASR behaviors

O=C1N(c2ccccc2)c2ccccc2C1(Cc1ccncc1)Cc1ccncc1 [linopirdine]
eASR magnitudes in animals treated with M-current ligands ([1]; zebrafish, in vivo): significantly increased

CC1(C)CC(=O)c2c(SCCO)sc(-c3nccs3)c2C1 [TB 21007]
Phenoscore ([1]; zebrafish, in vivo): 0.12

O=C(Nc1cnc(Cl)nc1)c1ccc(F)c(F)c1 [ICA-069673]
eASR magnitudes in animals treated with M-current ligands ([1]; zebrafish, in vivo): significantly decreased

NC[C@H](CC(=O)O)c1ccc(Cl)cc1 [R-Baclofen]
Phenoscore ([1]; zebrafish, in vivo): 0.26

Fc1ccc2c(CCNCc3cccc(OCC(F)(F)C(F)F)c3)c[nH]c2c1 [idalopirdine]
enhanced acoustic startle response (eASR) phenotype, in words [1, 3]: reproducibly caused eASRs in vivo

Br.COc1ccc(-c2ccc(=N)n(CCCC(=O)O)n2)cc1 [SR-95531]
Phenoscore ([1]; zebrafish, in vivo): 0.21

CSc1ccc2c(c1)C(N1CCN(C)CC1)Cc1ccccc1S2 (stereo not shown) [METHIOTHEPIN]
Phenoscore ([1]; zebrafish, in vivo): 0.33

N[C@@H](Cn1ccc(=O)n(Cc2ccccc2C(=O)O)c1=O)C(=O)O [UBP 302]
Phenoscore ([1]; zebrafish, in vivo): 0.17

Cc1cccc([C@H](C)c2cnc[nH]2)c1C [dexmedetomidine]
enhanced acoustic startle response (eASR) phenotype, in words ([1]; zebrafish, in vivo): not all anesthetics caused eASR behaviors

COc1ccc(NC(=O)c2ccc(-c3ccc(-c4noc(C)n4)cc3C)cc2)cc1OCCN(C)C [SB-216641]
Phenoscore ([1]; zebrafish, in vivo): 0.11

NCCc1c[nH]c2c(O)cc(O)cc12 [57-DIHYDROXYTRYPTAMINE]
Phenoscore ([1]; zebrafish, in vivo): 0.05

O=C1c2ccccc2C(Cc2ccncc2)(Cc2ccncc2)c2ccccc21 [XE-991]
eASR magnitudes in animals treated with M-current ligands ([1]; zebrafish, in vivo): significantly increased
